Tested on: human myeloma cell line MM.1S
Assay: SILAC acetylated-lysine peptide profiling, HDAC inhibitor vs DMSO (light/heavy ratio)
Type: cell-based
Description: An embodiment of the invention comprises utilizing the SILAC method in order to quantitate changes in protein expression between two or more populations of cells. The SILAC method is a technique based on mass spectrometry that detects differences in protein abundance among samples using non-radioactive isotopic labeling. The SILAC method is known in the art, and described in detail in Ong et al., “Stable Isotope Labeling by Amino Acids in Cell Culture, SILAC, as a Simple and Accurate Approach to Expression Proteomics”, Molecular & Cellular Proteomics, vol. 1, pp. 376-386 (2002), which is incorporated herein by reference in its entirety.
Briefly, the SILAC method involves growing two populations of cells in cell culture. The first population of cells is grown in growth media containing normal amino acids (“normal media”). The second population of cells is grown in media lacking a standard essential amino acid (such as lysine), but is then supplemented with a non-radioactive, isotopically labeled form of that essential amino acid (such as lysine labeled with ^13C atoms, rather than normal ^12C atoms), which is called “heavy media”. When the two populations of cells are each growing in the medium, they incorporate the amino acids into all of their proteins. The growth of cells maintained in the heavy media is no different from that in normal media. All peptides containing the heavy amino acids are heavier than their normal counterparts. The cells from each of the two populations of cells are lysed. The lysates from each of the two cell populations are then combined. The combined cell lysates are then analyzed by mass spectrometry. Pairs of chemically identical peptides of different stable isotope composition can be differentiated in a mass spectrometer due to their difference in mass. The ratio of peak intensities in the mass spectrum for such peptide pairs reflects the abundance ratio for the two proteins.
This example describes SILAC studies that were performed to compare the effects of three different HDAC inhibitors (Compound A, Compound B, and tubastatin A) to a control on a human multiple myeloma cell line. The HDAC inhibitors were also compared amongst themselves to determine differences in their effects.
A human myeloma cell line MM.1S was grown using either ^12C (light) or ^13C (heavy) lysine containing culture medium. The “heavy” cells were treated with DMSO as the control, and the “light” cells were treated with a single HDAC inhibitor at 37° C. for 6 hours. The heavy and light cells were lysed, and the lysates were mixed in 1:1 ratio and digested with the protease trypsin. The acetylated lysine containing peptides (due to the action of the HDAC inhibitor) in the digested peptide pool were captured by a non-specific anti-acetylated lysine antibody cocktail (the antibodies identify both light and heavy acetylated peptides), and subjected to mass spectrometry analysis in order to identify thousands of individual peptides.
Thousands of peptides were identified in pairs (^12C and ^13C) due to their known mass differences. The amino acid sequence and quantitative ratio (Light/Heavy) of a given peptide in two differentially treated cell lysates were then determined and annotated with their possible protein (gene) sources.
As stated above, three HDAC inhibitors (Compound A, Compound B, and Tubastatin A) were used. Thus, the SILAC method was performed three times, with a different HDAC inhibitor compared to a control each time. Accordingly, there are three pairs of quantitative data in the table below, i.e., Compound A:DMSO, Compound B:DMSO, and Tubastatin A:DMSO. A cut-off of 1.30 fold of change (increase or decrease) was then used to determine “changed” or “+” in the table, and any peptides with a fold of change less than 1.3 fold were determined to be “unchanged” or “0” in the table. Those peptides that were not identified were marked as “NA” in the table. […]

## O=C(CCCCCCNC(=O)c1cnc(N(c2ccccc2)c2ccccc2)nc1)NO [Compound A, 2-(diphenylamino)-N-(7-(hydroxyamino)-7-oxoheptyl)pyrimidine-5-carboxamide]
SNORD21, RPL5 [220], log 2 scale, drug vs DMSO
  L/H ratio of acetylated peptide […](ac)K (SEQ ID NO: 105): 0.00
SNORD43, RPL3 [115], log 2 scale, drug vs DMSO
  L/H ratio of acetylated peptide […](ac)R (SEQ ID NO: 106): 0.00
SRSF1 [38], log 2 scale, drug vs DMSO
  L/H ratio of acetylated peptide […](ac)YGAIR (SEQ ID NO: 107): 0.00
STT3B [10], log 2 scale, drug vs DMSO
  L/H ratio of acetylated peptide (ac)AEPSAPESK(ac)HK (SEQ ID NO: 108): 0.00
SYAEELAK(ac)HGMK (SEQ ID NO: 481), Estradiol 17-beta-dehydrogenase 12 [72], HSD17B12
  L/H ratio of acetylated peptide: 0.39 log 2
Selenoprotein H [20], gene C11orf31, drug:DMSO
  light to heavy ratio (L/H ratio), log 2 scale, acetylated peptide […](ac)R (SEQ ID NO: 781): 1.00
Serine hydroxymethyltransferase mitochondrial [469], gene SHMT2, inhibitor:DMSO
  light to heavy ratio (L/H ratio) of acetylated peptide LQDFK(ac)SFLLK (SEQ ID NO: 582): 0.43 log 2
Serine hydroxymethyltransferase mitochondrial [474], gene SHMT2, inhibitor:DMSO
  light to heavy ratio (L/H ratio) of acetylated peptide SFLLK(ac)DSETSQR (SEQ ID NO: 567): 0.41 log 2
Serine/arginine-rich splicing factor 2 [36], gene SRSF2, inhibitor:DMSO
  light to heavy ratio (L/H ratio) of acetylated peptide VFEK(ac)YGR (SEQ ID NO: 568): 0.41 log 2
Signal peptidase complex subunit 2 [38], gene LOC653566, SPCS2, inhibitor:DMSO
  light to heavy ratio (L/H ratio) of acetylated peptide SGLLDK(ac)WK (SEQ ID NO: 602): 0.46 log 2
Splicing factor U2AF 35 kDa subunit [13], U2AF1, drug:DMSO
  light to heavy ratio (L/H ratio) of acetylated peptide (ac)[…](ac)DK (SEQ ID NO: 283): 0.60 log 2
Stress-70 protein mitochondrial [135], gene HSPA9, inhibitor:DMSO
  light to heavy ratio (L/H ratio) of acetylated peptide YDDPEVQK(ac)DIK (SEQ ID NO: 578): 0.43 log 2
Stress-induced-phosphoprotein 1 [325], gene STIP1, inhibitor:DMSO
  light to heavy ratio (L/H ratio) of acetylated peptide […](ac)SLAEHR (SEQ ID NO: 534): −0.40 log 2
TLQYK(ac)[…] (SEQ ID NO: 252), 40S ribosomal protein S16 [50], RPS16
  light to heavy ratio (L/H ratio) of acetylated peptide, log 2 scale: −0.39
TUBB2C [58], log 2 scale, drug vs DMSO
  L/H ratio of acetylated peptide […](ac)YVPR (SEQ ID NO: 109): 0.00
TUFM [91], log 2 scale, drug vs DMSO
  L/H ratio of acetylated peptide ILAEGGGAK(ac)FK (SEQ ID NO: 110): 0.00
TXN [8], log 2 scale, drug vs DMSO
  L/H ratio of acetylated peptide QIESK(ac)[…] (SEQ ID NO: 111): 0.00
TXNDC5, MUTED, MUTED-TXNDC5 [118], log 2 scale, drug vs DMSO
  L/H ratio of acetylated peptide VYVAK(ac)[…] (SEQ ID NO: 113): 0.00
TXNDC5, MUTED, MUTED-TXNDC5 [150], log 2 scale, drug vs DMSO
  L/H ratio of acetylated peptide […](ac)YQGPR (SEQ ID NO: 112): 0.00
Talin-1 [334], gene TLN1, drug:DMSO
  light to heavy ratio (L/H ratio), log 2 scale, acetylated peptide LLGITK(ac)ECVMR (SEQ ID NO: 815): 1.00
Thioredoxin domain-containing protein 5 [390], TXNDC5, MUTED, MUTED-TXNDC5, drug:DMSO
  light to heavy ratio (L/H ratio) of acetylated peptide NICSK(ac)YSVR (SEQ ID NO: 256): 0.39 log 2
Transitional endoplasmic reticulum ATPase [109], gene VCP, drug:DMSO
  light to heavy ratio (L/H ratio), log 2 scale, acetylated peptide […](ac)YGK (SEQ ID NO: 817): 1.00
Translocation protein SEC62 [60], gene SEC62, inhibitor:DMSO
  light to heavy ratio (L/H ratio) of acetylated peptide AVDCLLDSK(ac)WAK (SEQ ID NO: 518): −0.51 log 2
Translocon-associated protein subunit gamma [81], gene SSR3, inhibitor:DMSO
  light to heavy ratio (L/H ratio) of acetylated peptide NVK(ac)FVLK (SEQ ID NO: 609): 0.47 log 2
Transmembrane protein 43 [159], gene TMEM43, inhibitor:DMSO
  light to heavy ratio (L/H ratio) of acetylated peptide SEIINSK(ac)NFDR (SEQ ID NO: 525): −0.45 log 2
Tricarboxylate transport protein mitochondrial [149], gene SLC25A1, inhibitor:DMSO
  light to heavy ratio (L/H ratio) of acetylated peptide VK(ac)[…] (SEQ ID NO: 562): 0.40 log 2
Trifunctional enzyme subunit alpha mitochondrial [337], gene HADHA, drug:DMSO
  light to heavy ratio (L/H ratio), log 2 scale, acetylated peptide ESK(ac)[…] (SEQ ID NO: 787): 1.00
Trifunctional enzyme subunit alpha mitochondrial [359], gene HADHA, drug:DMSO
  light to heavy ratio (L/H ratio), log 2 scale, acetylated peptide FGAPQK(ac)DVK (SEQ ID NO: 788): 1.00
Trifunctional enzyme subunit alpha mitochondrial [569], gene HADHA, drug:DMSO
  light to heavy ratio (L/H ratio), log 2 scale, acetylated peptide ILQEGVDPK(ac)K (SEQ ID NO: 789): 1.00
Trifunctional enzyme subunit beta mitochondrial [272], HADHB, drug:DMSO
  light to heavy ratio (L/H ratio) of acetylated peptide VPGK(ac)DTVTK (SEQ ID NO: 308): 1.00 log 2
Tubulin polymerization-promoting protein [187:189], gene TPPP, drug:DMSO
  light to heavy ratio (L/H ratio), log 2 scale, acetylated peptide GK(ac)GK(ac)AGR (SEQ ID NO: 816): 1.00
U2AF2 [462], log 2 scale, drug vs DMSO
  L/H ratio of acetylated peptide VVVTK(ac)YCDPDSYHR (SEQ ID NO: 114): 0.00
Uncharacterized protein CXorf59 [13], gene CXorf59, drug:DMSO
  light to heavy ratio (L/H ratio), log 2 scale, acetylated peptide QNIILK(ac)NDK (SEQ ID NO: 784): 1.00
VAILK(ac)ANLR (SEQ ID NO: 488), Transitional endoplasmic reticulum ATPase [658], VCP
  L/H ratio of acetylated peptide: 0.80 log 2
VDAC1 [224], log 2 scale, drug vs DMSO
  L/H ratio of acetylated peptide FGIAAK(ac)[…] (SEQ ID NO: 115): 0.00
VDAC2 [63], log 2 scale, drug vs DMSO
  L/H ratio of acetylated peptide YK(ac)[…] (SEQ ID NO: 116): 0.00
